Assay results as given in patent US9522881B2, “Hydroxyindole carboxylic acid based inhibitors for oncogenic Src homology-2 domain containing protein tyrosine phosphatase-2 (SHP2)” (Indiana University Research and Technology Corporation, priority 2013, dated 2016).
“Also recorded” adds a separate entry of the source.

target: SHP2 (Homo sapiens (Human), UniProt Q06124); experiment: SHP2-catalyzed hydrolysis of p-nitrophenyl phosphate (pNPP); assay type: biochemical; details: pNPP substrate, pH 7.0, 25° C.
Experimental: Libraries 11a-d were screened at ˜5 μM for SHP2 inhibitors without further purification. The ability of the library components to inhibit the SHP2-catalyzed hydrolysis of p-nitrophenyl phosphate (pNPP) was evaluated at pH 7.0 and 25° C. More particularly, the phosphatase activity of SHP2 was assayed using p-nitrophenyl phosphate (pNPP) as a substrate at 25° C. in 50 mM 3,3-dimethylglutarate buffer, pH 7.0, containing 1 mM EDTA with an ionic strength of […] adjusted by NaCl. The libraries were screened in a 96-well format at 5 μM compound concentration. […] The nonenzymatic hydrolysis of pNPP was corrected by measuring the control without the addition of enzyme. The amount of product p-nitrophenol was determined from the absorbance at 405 nm detected by a Spectra MAX340 microplate spectrophotometer (Molecular Devices, Sunnyvale, Calif.) using a molar extinction coefficient of 18,000 M^−1 cm^−1. […] IC50 values for selected resynthesized and purified hits were calculated by fitting the absorbance at 405 nm versus inhibitor concentration to the following equation: AI/A0=IC50/(IC50+[I]) where AI is the absorbance at 405 nm of the sample in the presence of the inhibitor; A0 is the absorbance at 405 nm in the absence of inhibitor; and [I] is the concentration of the inhibitor.

| IC50 [µM] | SMILES |
| --- | --- |
| 14.4 | Cn1c(-c2cccc(NC(=O)C(=O)O)c2)c(I)c2cc(C(=O)O)c(O)cc21 [10a, 2-(3-(carboxyformamido)phenyl)-6-hydroxy-3-iodo-1-methyl-1H-indole-5-carboxylic acid] |
| 4.5 ± 1.4 | Cn1c(-c2cccc(NC(=O)CCC(=O)Nc3cccc(OCc4ccccc4)c3)c2)c(I)c2cc(C(=O)O)c(O)cc21 [11c-4, 2-(3-(4-((3-(benzyloxy)phenyl)amino)-4-oxobutanamido)phenyl)-6-hydroxy-3-iodo-1-methyl-1H-indole-5-carboxylic acid] |
| 7.2 ± 0.9 | Cn1c(-c2cccc(NC(=O)CCC(=O)N3CCc4cc(Br)ccc43)c2)c(I)c2cc(C(=O)O)c(O)cc21 [11c-6, 2-(3-(4-(5-bromoindolin-1-yl)-4-oxobutanamido)phenyl)-6-hydroxy-3-iodo-1-methyl-1H-indole-5-carboxylic acid] |
| 8.6 ± 2.3 | Cn1c(-c2cccc(NC(=O)CCC(=O)Nc3ccc(OC(F)(F)F)cc3)c2)c(I)c2cc(C(=O)O)c(O)cc21 [11c-7, 6-hydroxy-3-iodo-1-methyl-2-(3-(4-oxo-4-((4-(trifluoromethoxy)phenyl)amino)butanamido)phenyl)-1H-indole-5-carboxylic acid] |
| 10.7 ± 2.4 | CC(C)c1ccc(NC(=O)CCC(=O)Nc2cccc(-c3c(I)c4cc(C(=O)O)c(O)cc4n3C)c2)cc1 [11c-8, 6-hydroxy-3-iodo-2-(3-(4-((4-isopropylphenyl)amino)-4-oxobutanamido)phenyl)-1-methyl-1H-indole-5-carboxylic acid] |
| 14 ± 1 | Cn1c(-c2cccc(NC(=O)CCC(=O)NCc3ccc4c(c3)OCO4)c2)c(I)c2cc(C(=O)O)c(O)cc21 [11c-9, 2-(3-(4-((benzo[d][1,3]dioxol-5-ylmethyl)amino)-4-oxobutanamido)phenyl)-6-hydroxy-3-iodo-1-methyl-1H-indole-5-carboxylic acid] |
| > 20 | CCCN(CC1CC1)C(=O)CCC(=O)Nc1cccc(-c2c(I)c3cc(C(=O)O)c(O)cc3n2C)c1 [11c-10, 2-(3-(4-((cyclopropylmethyl)(propyl)amino)-4-oxobutanamido)phenyl)-6-hydroxy-3-iodo-1-methyl-1H-indole-5-carboxylic acid] |
| 26 ± 5 | Cn1c(-c2cccc(NC(=O)CCC(=O)Nc3nccs3)c2)c(I)c2cc(C(=O)O)c(O)cc21 [11c-11, 6-hydroxy-3-iodo-1-methyl-2-(3-(4-oxo-4-(thiazol-2-ylamino)butanamido)phenyl)-1H-indole-5-carboxylic acid] |

| SMILES | IC50 [µM] |
| --- | --- |
| Cn1c(-c2cccc(NC(=O)CCC(=O)Nc3cccc(-c4ccccc4)c3)c2)c(I)c2cc(C(=O)O)c(O)cc21 [11c-5, 2-(3-(4-([1,1′-biphenyl]-3-ylamino)-4-oxobutanamido)phenyl)-6-hydroxy-3-iodo-1-methyl-1H-indole-5-carboxylic acid] | 5.3 ± 0.9 |

target: SHP2 (D2C) (Homo sapiens (Human), UniProt Q06124); experiment: SHP2 (D2C) pNPP inhibition assay, hits of library 7′a-c; assay type: biochemical; details: not given
Experimental: These three libraries were further screened at 10 μM for SHP2. […] Three pairs of hits bearing the same amine scaffold from library 7′a and 7′c were resynthesized and purified by HPLC. […] (Table 1).
In this Example, SHP2 (D2C) was used to transform into E. coli BL21/DE3 and grown in LB medium containing 50 μg/ml kanamycin at 37° C. to an OD600 of 0.4. Following the addition of IPTG to a final concentration of 20 μM, the culture was incubated at 20° C. with shaking for an additional 16 hours. The cells were harvested by centrifugation at 5000 rpm for 5 minutes at 4° C. The bacterial cell pellets were resuspended in 20 mM Tris, pH 7.9, 500 mM NaCl, 5 mM imidazole, and were lysed by passage through a French press cell at 1,200 psi twice. Cellular debris was removed by centrifugation at 16,000 rpm for 30 minutes at 4° C. The protein was purified from the supernatant using standard procedures of Ni-nitrilotriacetic acid-agarose (Qiagen) affinity purification. The protein eluted from Ni-NTA column was concentrated with an Amicon Ultra centrifugal filter device (Millipore) and the buffer was changed to 20 mM Tris, pH 7.5, 150 mM NaCl, 1 mM EDTA and 1 mM DTT. Protein concentration was determined using the Bradford dye binding assay (Bio-Rad) diluted according to the manufacturer's recommendations with bovine serum albumin as standard. The purified SHP 2 (D2C) were made to 30% glycerol and stored at −20° C.
Inhibition Study: The inhibition assays were performed at 25° C. in 50 mM 3,3-dimethylglutarate buffer, pH 7.0, containing 1 mM EDTA with an ionic strength of 0.15M adjusted by NaCl. The salicylic acid based library was screened in a 96-well format at 10 μM compound concentration. […] The reaction was quenched after 10 minutes by the addition of 50 μl of 5N NaOH, and then this reaction mixture was detected for absorbance at 405 nm by a Spectra MAX340 microplate spectrophotometer (Molecular Devices). IC50 values were calculated by fitting the absorbance at 405 nm versus inhibitor concentration to the following equation: AI/A0=IC50/(IC50+[I]) where AI is the absorbance at 405 nm of the sample in the presence of inhibitor; A0 is the absorbance at 405 nm in the absence of inhibitor; and [I] is the concentration of the inhibitor.

Sequence of SHP2 (D2C) (Q06124 240-528): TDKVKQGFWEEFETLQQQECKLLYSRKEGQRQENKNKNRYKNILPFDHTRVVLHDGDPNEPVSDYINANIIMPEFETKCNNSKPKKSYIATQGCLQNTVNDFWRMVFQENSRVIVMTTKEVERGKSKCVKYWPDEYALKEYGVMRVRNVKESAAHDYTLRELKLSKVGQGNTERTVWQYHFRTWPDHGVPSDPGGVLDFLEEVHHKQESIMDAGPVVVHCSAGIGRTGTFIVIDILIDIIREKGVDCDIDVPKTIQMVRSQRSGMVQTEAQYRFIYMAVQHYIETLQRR

| potency for SHP2 relative to 7′a-3 [fold] | SMILES |
| --- | --- |
| 12 | Cn1c(-c2ccc(C(=O)Nc3ccc(OCc4ccccc4)c(Cl)c3)cc2)c(I)c2cc(C(=O)O)c(O)cc21 [7′c-3, 2-(4-((4-(benzyloxy)-3-chlorophenyl)carbamoyl)phenyl)-6-hydroxy-3-iodo-1-methyl-1H-indole-5-carboxylic acid] |

same assay, conditions: pNPP substrate, pH 7, 25° C.; library 7′a / 7′c hits

| IC50 [µM] | SMILES |
| --- | --- |
| > 20 | Cn1c(CCCC(=O)O)c(I)c2cc(C(=O)O)c(O)cc21 [7′a, 2-(3-carboxypropyl)-6-hydroxy-3-iodo-1-methyl-1H-indole-5-carboxylic acid] |
| 5 ± 0.3 | Cn1c(CCCC(=O)Nc2cccc(OCc3ccccc3)c2)c(I)c2cc(C(=O)O)c(O)cc21 [7′a-1, 2-(4-((3-(benzyloxy)phenyl)amino)-4-oxobutyl)-6-hydroxy-3-iodo-1-methyl-1H-indole-5-carboxylic acid] |
| 12.6 ± 2.8 | Cn1c(CCCC(=O)NCc2ccc3c(c2)OCO3)c(I)c2cc(C(=O)O)c(O)cc21 [7′a-2, 2-(4-((benzo[d][1,3]dioxol-5-ylmethyl)amino)-4-oxobutyl)-6-hydroxy-3-iodo-1-methyl-1H-indole-5-carboxylic acid] |
| > 20 | Cn1c(CCCC(=O)Nc2ccc(OCc3ccccc3)c(Cl)c2)c(I)c2cc(C(=O)O)c(O)cc21 [7′a-3, 2-(4-((4-(benzyloxy)-3-chlorophenyl)amino)-4-oxobutyl)-6-hydroxy-3-iodo-1-methyl-1H-indole-5-carboxylic acid] |
| 9.2 ± 0.5 | Cn1c(-c2ccc(C(=O)O)cc2)c(I)c2cc(C(=O)O)c(O)cc21 [7′c, 2-(4-carboxyphenyl)-6-hydroxy-3-iodo-1-methyl-1H-indole-5-carboxylic acid] |
| 2.4 ± 0.1 | Cn1c(-c2ccc(C(=O)Nc3cccc(OCc4ccccc4)c3)cc2)c(I)c2cc(C(=O)O)c(O)cc21 [7′c-1, 2-(4-((3-(benzyloxy)phenyl)carbamoyl)phenyl)-6-hydroxy-3-iodo-1-methyl-1H-indole-5-carboxylic acid] |
| 1.6 | Cn1c(-c2ccc(C(=O)Nc3ccc(OCc4ccccc4)c(Cl)c3)cc2)c(I)c2cc(C(=O)O)c(O)cc21 [7′c-3, 2-(4-((4-(benzyloxy)-3-chlorophenyl)carbamoyl)phenyl)-6-hydroxy-3-iodo-1-methyl-1H-indole-5-carboxylic acid] |

tested on: EGF-induced Erk1/2 phosphorylation; experiment: EGF-induced Erk1/2 phosphorylation in H1975 cells (immunoblot); assay type: cell-based, human; details: H1975 cells, 2 μM
Experimental: (§1) For biochemical studies, H1975 cells were serum-starved overnight followed by treatment with vehicle or compound 11a-1 for 3 hours, and then either left unstimulated or stimulated with 5 ng/ml EGF (Sigma, St. Louis, Mo.) for 60 minutes. Lysates were then resolved by SDS-PAGE and the protein phosphorylation levels were detected by immunoblot analysis. Specifically, cells were lysed in lysis buffer (1.0% Nonidet P-40, 50 mM Tris-HCl (pH 7.4), 150 mM NaCl, 5 mM EDTA, 2 mM NaVO3, 10 mM NaF) plus a protease inhibitor mixture available from Roche (Basel, Switzerland) and centrifuged at 10,000 rpm for 5 minutes at 4° C. Supernatants were collected and protein concentration was determined using the BCA protein assay (ThermoFisher Scientific, Rockford, Ill.). Equal amount of protein extracts were mixed with gel loading buffer and separated on SDS-PAGE. After electrophoresis, the proteins were transferred onto nitrocellulose membranes and nonspecific binding was blocked with 5% nonfat dry milk in Tris-buffered saline containing 0.1% Tween-20 (TBS-T). Membranes were then probed with various antibodies overnight at 4° C. on a rocker. After incubation, membranes were washed with TBS-T and incubated with appropriate horseradish peroxidase (HRP)-conjugated secondary antibodies for 1 hour at room temperature. Finally, the proteins on the membranes were detected using SuperSignal West Dura Luminol/Enhancer solution (ThermoFisher Scientific, Rockford, Ill.) and membranes were analyzed using Bio-Rad ChemiDoc XRS Imaging System.

| SMILES | effect on Erk1/2 phosphorylation (SHP2 dependent signaling), in words |
| --- | --- |
| Cn1c(-c2cccc(NC(=O)C(=O)O)c2)c(I)c2cc(C(=O)O)c(O)cc21 [10a, 2-(3-(carboxyformamido)phenyl)-6-hydroxy-3-iodo-1-methyl-1H-indole-5-carboxylic acid] | no effect; also recorded: failed to block |

tested on: Paxillin (pY118); experiment: Paxillin (pY118) phosphorylation in H1975 cells (immunoblot); assay type: cell-based, human; details: 2 μM
Experimental: as §1

| SMILES | effect on Paxillin phosphorylation, in words |
| --- | --- |
| Cn1c(-c2cccc(NC(=O)C(=O)O)c2)c(I)c2cc(C(=O)O)c(O)cc21 [10a, 2-(3-(carboxyformamido)phenyl)-6-hydroxy-3-iodo-1-methyl-1H-indole-5-carboxylic acid] | no effect |
